These compounds were tested on Amaranthus retroflexus (assay: Post-emergence test, weed control effect). Conditions: Dose 3000 g/ha, after 3 weeks.
Assay type: in vivo
Source text: (§1) The activity level standard of harmful plant destruction (i.e. growth inhibition rate) is as follows: • Level 10: completely dead; • Level 9: above 90% growth inhibition rate; • Level 8: above 80% growth inhibition rate; • Level 7: above 70% growth inhibition rate; • Level 6: above 60% growth inhibition rate; • Level 5: above 50% growth inhibition rate; • Level 4: above 40% growth inhibition rate; • Level 3: above 30% growth inhibition rate; • Level 2: above 20% growth inhibition rate; • Level 1: below 20% growth inhibition rate; • Level 0: no effect.
(§2) The above described growth inhibition rates are fresh weight inhibition rates.
(§3) Experiment of post-emergence test: monocotyledonous and dicotyledonous weed seeds as well as main crop seeds (i.e., wheat, corn, rice, soybean, cotton, oilseed rape, millet and sorghum) were put into a plastic pot loaded with soil, then covered with 0.5-2 cm of soil, and the seeds were allowed to grow in good greenhouse environment. The test plants were treated at 2-3 leaf stage 2-3 weeks after sowing. The test compounds of the invention were dissolved in acetone respectively, then added with Tween-80 and diluted by a certain amount of water to give solutions with certain concentrations, and added with 80% vegetable oil methyl ester synergist at 1500 g/ha. The solution was sprayed to the plants with a sprayer. The plants were cultured for 3 weeks in the greenhouse.

Compound	weed control effect, Amaranthus retroflexus (activity level)	weed control effect (activity level), Amaranthus retroflexus
O=C(Oc1cc(C(F)(F)F)nnc1-c1ccccc1)SC1CCCCC1 [Compound 1-58]	10	–
Cn1nc(F)cc1-c1nnc(C(F)(F)F)cc1O [Compound 775]	–	10
O=S(=O)(Oc1cc(C(F)(F)F)nnc1-c1ccc(C(F)(F)F)cc1)C1CC1 [Compound 1-122]	10	–
Oc1cc(C(F)(F)F)nnc1-c1cn2ncccc2n1 [Compound 570]	–	10
C/C(=N/Oc1cc(C(F)(F)F)nnc1-c1ccc(C)c(C)c1)C(C)(C)C [Compound 1-174]	10	–
O=S(=O)(Oc1cc(C(F)(F)F)nnc1-c1ccc(F)c(F)c1)c1ccc(C(F)(F)F)cc1 [Compound 1-129]	10	–
CCc1cc(-c2nnc(C(F)(F)F)cc2O)n(C)n1 [Compound 780]	–	10

Same assay, conditions: dose 1000 g/ha, after 3 weeks

Compound	weed control effect (activity level), Amaranthus retroflexus
CS(=O)(=O)c1ccc(-c2nnc(C(F)(F)F)cc2O)cc1 [Compound 114]	10
Cc1cccc(C2CC2)c1-c1nnc(C(F)(F)F)cc1O [Compound 735]	10
Oc1cc(C(F)(F)F)nnc1-c1cc(F)cc(Cl)c1 [Compound 46]	10
Oc1cc(C(F)(F)F)nnc1-c1ccc(Cl)cc1Cl [Compound 39]	10
Oc1cc(C(F)(F)F)nnc1-c1cc(Cl)cc(Cl)c1 [Compound 40]	10
Cc1cc(F)ccc1-c1nnc(C(F)(F)F)cc1O [Compound 58]	10

Same assay, conditions: dose 2000 g/ha, after 3 weeks

Compound	weed control effect (activity level), Amaranthus retroflexus
Oc1cc(C(F)(F)F)nnc1-c1cccc2ccccc12 [Compound 380]	10
Cc1cncc(-c2nnc(C(F)(F)F)cc2O)c1 [Compound 211]	10
Cc1cc(F)ncc1-c1nnc(C(F)(F)F)cc1O [Compound 221]	10
Oc1cc(C(F)(F)F)nnc1-c1ccnc(Cl)c1Cl [Compound 222]	10

These compounds were tested on Veronica polita (assay: Post-emergence test, weed control effect). Conditions: Dose 3000 g/ha, after 3 weeks.
Assay type: in vivo
Source text: as §1, §2, §3

Compound	weed control effect, Veronica polita (activity level)	weed control effect (activity level), Veronica polita
O=C(Oc1cc(C(F)(F)F)nnc1-c1ccccc1)SC1CCCCC1 [Compound 1-58]	10	–
Cn1nc(F)cc1-c1nnc(C(F)(F)F)cc1O [Compound 775]	–	10
O=S(=O)(Oc1cc(C(F)(F)F)nnc1-c1ccc(C(F)(F)F)cc1)C1CC1 [Compound 1-122]	10	–
Oc1cc(C(F)(F)F)nnc1-c1cn2ncccc2n1 [Compound 570]	–	10
C/C(=N/Oc1cc(C(F)(F)F)nnc1-c1ccc(C)c(C)c1)C(C)(C)C [Compound 1-174]	10	–
O=S(=O)(Oc1cc(C(F)(F)F)nnc1-c1ccc(F)c(F)c1)c1ccc(C(F)(F)F)cc1 [Compound 1-129]	10	–
CCc1cc(-c2nnc(C(F)(F)F)cc2O)n(C)n1 [Compound 780]	–	10

Same assay, conditions: dose 1000 g/ha, after 3 weeks

Compound	weed control effect (activity level), Veronica polita
CS(=O)(=O)c1ccc(-c2nnc(C(F)(F)F)cc2O)cc1 [Compound 114]	10
Cc1cccc(C2CC2)c1-c1nnc(C(F)(F)F)cc1O [Compound 735]	10
Oc1cc(C(F)(F)F)nnc1-c1cc(F)cc(Cl)c1 [Compound 46]	10
Oc1cc(C(F)(F)F)nnc1-c1ccc(Cl)cc1Cl [Compound 39]	10
Oc1cc(C(F)(F)F)nnc1-c1cc(Cl)cc(Cl)c1 [Compound 40]	10
Cc1cc(F)ccc1-c1nnc(C(F)(F)F)cc1O [Compound 58]	10

Same assay, conditions: dose 2000 g/ha, after 3 weeks

Compound	weed control effect (activity level), Veronica polita
Oc1cc(C(F)(F)F)nnc1-c1cccc2ccccc12 [Compound 380]	10
Cc1cncc(-c2nnc(C(F)(F)F)cc2O)c1 [Compound 211]	10
Cc1cc(F)ncc1-c1nnc(C(F)(F)F)cc1O [Compound 221]	10
Oc1cc(C(F)(F)F)nnc1-c1ccnc(Cl)c1Cl [Compound 222]	10

The compounds below were run on Rorippa indica (assay: Post-emergence test, weed control effect). Conditions: Dose 3000 g/ha, after 3 weeks.
Assay type: in vivo
Source text: as §1, §2, §3

Compound	weed control effect, Rorippa indica (activity level)	weed control effect (activity level), Rorippa indica
O=C(Oc1cc(C(F)(F)F)nnc1-c1ccccc1)SC1CCCCC1 [Compound 1-58]	10	–
Cn1nc(F)cc1-c1nnc(C(F)(F)F)cc1O [Compound 775]	–	10
O=S(=O)(Oc1cc(C(F)(F)F)nnc1-c1ccc(C(F)(F)F)cc1)C1CC1 [Compound 1-122]	10	–
Oc1cc(C(F)(F)F)nnc1-c1cn2ncccc2n1 [Compound 570]	–	10
C/C(=N/Oc1cc(C(F)(F)F)nnc1-c1ccc(C)c(C)c1)C(C)(C)C [Compound 1-174]	10	–
O=S(=O)(Oc1cc(C(F)(F)F)nnc1-c1ccc(F)c(F)c1)c1ccc(C(F)(F)F)cc1 [Compound 1-129]	10	–
CCc1cc(-c2nnc(C(F)(F)F)cc2O)n(C)n1 [Compound 780]	–	10

Same assay, conditions: dose 1000 g/ha, after 3 weeks

Compound	weed control effect (activity level), Rorippa indica
CS(=O)(=O)c1ccc(-c2nnc(C(F)(F)F)cc2O)cc1 [Compound 114]	10
Cc1cccc(C2CC2)c1-c1nnc(C(F)(F)F)cc1O [Compound 735]	10
Oc1cc(C(F)(F)F)nnc1-c1cc(F)cc(Cl)c1 [Compound 46]	10
Oc1cc(C(F)(F)F)nnc1-c1ccc(Cl)cc1Cl [Compound 39]	10
Oc1cc(C(F)(F)F)nnc1-c1cc(Cl)cc(Cl)c1 [Compound 40]	10
Cc1cc(F)ccc1-c1nnc(C(F)(F)F)cc1O [Compound 58]	10

Same assay, conditions: dose 2000 g/ha, after 3 weeks

Compound	weed control effect (activity level), Rorippa indica
Oc1cc(C(F)(F)F)nnc1-c1cccc2ccccc12 [Compound 380]	10
Cc1cncc(-c2nnc(C(F)(F)F)cc2O)c1 [Compound 211]	10
Cc1cc(F)ncc1-c1nnc(C(F)(F)F)cc1O [Compound 221]	10
Oc1cc(C(F)(F)F)nnc1-c1ccnc(Cl)c1Cl [Compound 222]	10

The compounds below were run on Chenopodiaceae (assay: Post-emergence test, weed control effect). Conditions: Dose 3000 g/ha, after 3 weeks.
Assay type: in vivo
Source text: as §1, §2, §3

Compound	weed control effect, Chenopodiaceae (activity level)	weed control effect (activity level), Chenopodiaceae
O=C(Oc1cc(C(F)(F)F)nnc1-c1ccccc1)SC1CCCCC1 [Compound 1-58]	10	–
Cn1nc(F)cc1-c1nnc(C(F)(F)F)cc1O [Compound 775]	–	10
O=S(=O)(Oc1cc(C(F)(F)F)nnc1-c1ccc(C(F)(F)F)cc1)C1CC1 [Compound 1-122]	10	–
Oc1cc(C(F)(F)F)nnc1-c1cn2ncccc2n1 [Compound 570]	–	10
C/C(=N/Oc1cc(C(F)(F)F)nnc1-c1ccc(C)c(C)c1)C(C)(C)C [Compound 1-174]	10	–
O=S(=O)(Oc1cc(C(F)(F)F)nnc1-c1ccc(F)c(F)c1)c1ccc(C(F)(F)F)cc1 [Compound 1-129]	10	–
CCc1cc(-c2nnc(C(F)(F)F)cc2O)n(C)n1 [Compound 780]	–	10

Same assay, conditions: dose 1000 g/ha, after 3 weeks

Compound	weed control effect (activity level), Chenopodiaceae
CS(=O)(=O)c1ccc(-c2nnc(C(F)(F)F)cc2O)cc1 [Compound 114]	10
Cc1cccc(C2CC2)c1-c1nnc(C(F)(F)F)cc1O [Compound 735]	10
Oc1cc(C(F)(F)F)nnc1-c1cc(F)cc(Cl)c1 [Compound 46]	10
Oc1cc(C(F)(F)F)nnc1-c1ccc(Cl)cc1Cl [Compound 39]	10
Oc1cc(C(F)(F)F)nnc1-c1cc(Cl)cc(Cl)c1 [Compound 40]	10
Cc1cc(F)ccc1-c1nnc(C(F)(F)F)cc1O [Compound 58]	10

Same assay, conditions: dose 2000 g/ha, after 3 weeks

Compound	weed control effect (activity level), Chenopodiaceae
Oc1cc(C(F)(F)F)nnc1-c1cccc2ccccc12 [Compound 380]	10
Cc1cncc(-c2nnc(C(F)(F)F)cc2O)c1 [Compound 211]	10
Cc1cc(F)ncc1-c1nnc(C(F)(F)F)cc1O [Compound 221]	10
Oc1cc(C(F)(F)F)nnc1-c1ccnc(Cl)c1Cl [Compound 222]	10

Reference: US12568972B2, “Pyridazinol compounds and derivatives, preparation methods, herbicidal compositions and applications thereof” (Qingdao Kingagroot Chemical Compound Co., Ltd., priority 2018, dated 2026)
